# According to patent US7601850B2, “Phenyl-thiophene type vitamin D receptor modulators” (Eli Lilly and Company, priority 2002, dated 2009):
# Test system: rat osteocalcin promoter
# Test: OCN (osteocalcin) promoter assay in RG-15 (ROS 17/2.8) cells
# Format: cell-based
# Settings: not given
# Experimental: 4. The OCN Promoter test is described in the “Assay” section of the Description, infra.
# 3. The OCN (Osteocalcin) Promoter Assay
# The OCN Promoter Assay is an indicator and marker for osteoporosis. Desired assay results are EC50 less than or equal to 325 nM. Preferred assay results are less than 50 nM.
# (3) Materials and Method for The OCN Promoter Assay:
# The activation of osteocalcin by VDR ligands was evaluated in a rat osteoblast-like cell line RG-15 (ROS 17/2.8) stably expressing rat osteocalcin promoter fused with luciferase reporter gene. The stable cell lines were established as reported before (Activation of Osteocalcin Transcription involves interaction of protein kinase A- and Protein kinase C-dependent pathways. Boguslawski, G., Hale, L. V., Yu, X.-P., Miles, R. R., Onyia, J. E., Santerre R. F., Chandrasekhar, S. J Biol. Chem. 275, 999-1006, 2000). Confluent RG-15 cells maintained in DMEM/F-12 medium (3:1) containing 5% FBS, 300 µg/ml G418 and at 37° C. under 5% CO2/95% air atmosphere were trypsinized (0.25% trypsin) and plated into white opaque 96-well cell culture plates (25000 cells/well). After 24 hr, cells (in DMEM/F-12 medium+2% FBS) were treated with various concentrations of compounds, dissolved in DMSO. The final DMSO concentration remained at 0.01% (v/v). After 48 hr treatment, the medium was removed, cells were lysed with 50 µl of lysis buffer (From Luciferase reporter assay system, Roche Diagnostics, Indianapolis, Ind.) and assayed for luciferase activity using the Luciferase Reporter Gene Assay kit from Boehringer Mannheim as per manufacturer's specifications.
row,Structure (SMILES),EC50 [nM]
1,"CCC(CC)(c1ccc(OCC(O)C(C)(C)C)c(C)c1)c1cc(C)c(C(=O)N[C@H](C)C(=O)O)s1 (stereo partly drawn) [Ex. 57, D-2-[(5-{1-Ethyl-1-[4-(2-hydroxy-3,3-dimethyl-butoxy)-3-methyl-phenyl]-propyl}-3-methyl-thiophene-2-carbonyl)-amino]-propionic acid]",115
2,"CCC(CC)(c1ccc(OCC(O)C(C)(C)C)c(C)c1)c1cc(C)c(C(=O)N2CCC[C@H]2C(=O)O)s1 (stereo partly drawn) [Ex. 75, L-1-(5-{1-Ethyl-1-[4-(2-hydroxy-3,3-dimethyl-butoxy)-3-methyl-phenyl]-propyl}-3-methyl-thiophene-2-carbonyl)-pyrrolidine-2-carboxylic acid]",423
3,"CCC(CC)(c1ccc(OCC(O)C(C)(C)C)c(C)c1)c1cc(C)c(C(=O)N[C@@H](C(=O)O)C(C)C)s1 (stereo partly drawn) [Ex. 86, D-2-[(5-{1-Ethyl-1-[4-(2-hydroxy-3,3-dimethyl-butoxy)-3-methyl-phenyl]-propyl}-3-methyl-thiophene-2-carbonyl)-amino]-3-methyl-butyric acid]",205
4,"CCC(CC)(c1ccc(OCC(O)C(C)(C)C)c(C)c1)c1cc(C)c(C(=O)N[C@@H](C(=O)O)C(C)C)s1 (stereo partly drawn) [Ex. 87, D-2-[(5-{1-ethyl-1-[4-(2-hydroxy-3,3-dimethyl-butoxy)-3-methyl-phenyl]-propyl}-3-methyl-thiophene-2-carbonyl)-amino]-3-methyl-butyric acid]",> 1000

# Same assay, conditions: Rattus norvegicus
row,Structure (SMILES),EC50 [nM]
1,"CCC(CC)(c1ccc(OCC(O)C(C)(C)C)c(C)c1)c1cc(C)c(C(=O)NCC(=O)OC)s1 (stereo not drawn) [Ex. 46, 2-[5-{1-Ethyl-1-{4-(2-hydroxy-3,3-dimethyl-butyoxy)-3-methyl-phenyl-propyl}-3-methyl-thiophene-2-carbonyl)-amino]-acetic acid methyl ester]",43.6
2,"CCC(CC)(c1ccc(OCC(O)C(C)(C)C)c(C)c1)c1cc(C)c(C(=O)NCC(=O)O)s1 (stereo not drawn) [Ex. 47, 2-[5-{1-Ethyl-1-{4-(2-hydroxy-3,3-dimethyl-butyoxy)-3-methyl-phenyl-propyl}-3-methyl-thiophene-2-carbonyl)-amino]-acetic acid]",27.7
3,"CCC(O)(CC)COc1ccc(C(CC)(CC)c2cc(C)c(C(=O)O)s2)cc1C [Ex. 51, 5-{1-Ethyl-1-[4-(2-ethyl-2-hydroxy-butoxy)-3-methyl-phenyl]-propyl}-3-methyl-thiophene-2-carboxylic acid]",781
4,"CCC(O)(CC)COc1ccc(C(CC)(CC)c2cc(C)c(C(=O)NCC(=O)O)s2)cc1C [Ex. 53, 2-[(5-{1-Ethyl-1-[4-(2-ethyl-2-hydroxy-butoxy)-3-methyl-phenyl]-propyl}-3-methyl-thiophene-2-carbonyl)-amino]-acetic acid]",267
5,"CCC(CC)(c1ccc(OCC(O)C(C)(C)C)c(C)c1)c1cc(C)c(C(=O)N[C@@H](CC(=O)O)C(=O)O)s1 (stereo partly drawn) [Ex. 59, L-2-[(5-{1-Ethyl-1-[4-(2-hydroxy-3,3-dimethyl-butoxy)-3-methyl-phenyl]-propyl}-3-methyl-thiophene-2-carbonyl)-amino]-succinic acid]",319
6,"CCC(C)[C@H](NC(=O)c1sc(C(CC)(CC)c2ccc(OCC(O)C(C)(C)C)c(C)c2)cc1C)C(=O)OC (stereo partly drawn) [Ex. 68, L-2-[(5-{1-Ethyl-1-[4-(2-hydroxy-3,3-dimethyl-butoxy)-3-methyl-phenyl]-propyl}-3-methyl-thiophene-2-carbonyl)-amino]-3-methyl-pentanoic acid methyl ester]",56
7,"CCC(C)[C@H](NC(=O)c1sc(C(CC)(CC)c2ccc(OCC(O)C(C)(C)C)c(C)c2)cc1C)C(=O)O (stereo partly drawn) [Ex. 69, L-2-[(5-{1-Ethyl-1-[4-(2-hydroxy-3,3-dimethyl-butoxy)-3-methyl-phenyl]-propyl}-3-methyl-thiophene-2-carbonyl)-amino]-3-methyl-pentanoic acid]",487
8,"CCC(CC)(c1ccc(OCC(O)C(C)(C)C)c(C)c1)c1cc(C)c(C(=O)N2CCC[C@@H]2C(=O)O)s1 (stereo partly drawn) [Ex. 81, D-1-(5-{1-ethyl-1-[4-(2-hydroxy-3,3-dimethyl-butoxy)-3-methyl-phenyl]-propyl}-3-methyl-thiophene-2-carbonyl)-pyrrolidine-2-carboxylic acid]",200
9,"CCC(CC)(c1ccc(OCC(O)C(C)(C)C)c(C)c1)c1ccc(C(=O)O)s1 (stereo not drawn) [Ex. 88, 3′-[4-(2-hydroxy-3,3-dimethylbutoxy)-3-methylphenyl]-3′-[5-carboxy-thiophen-2-yl]pentane]",169
10,"CCC(CC)(c1ccc(OCC(=O)C(C)(C)C)c(C(C)C)c1)c1ccc(C(=O)OC)s1 [Ex. 91, 3′-[4-(2-oxo-3,3-dimethylbutoxy)-3-(1-methylethyl)phenyl]-3′-[5-methoxycarbonyl-thiophen-2-yl]pentane]",212
11,"CCc1cc(C(CC)(CC)c2ccc(C(=O)O)s2)ccc1OCC(C)(O)C(C)(C)C (stereo not drawn) [Ex. 107, 3′-[4-(2-hydroxy-2,3,3-trimethylbutoxy)-3-ethylphenyl]-3′-[5-carboxy-thiophen-2-yl]pentane]",42.3
12,"CCCc1cc(C(CC)(CC)c2ccc(C(=O)O)s2)ccc1OCC(C)(O)C(C)(C)C (stereo not drawn) [Ex. 111, 3′-[4-(2-hydroxy-2,3,3-trimethylbutoxy)-3-n-propylphenyl]-3′-[5-carboxy-thiophen-2-yl]pentane]",34.5
13,"CCC(CC)(c1ccc(OCC(C)(O)C(C)(C)C)c(OC)c1)c1ccc(C(=O)N[C@@H](C)C(=O)O)s1 (stereo partly drawn) [Ex. 115, d-3′-[4-(2-hydroxy-2,3,3-trimethylbutoxy)-3-methoxyphenyl]-3′-[5-(carboxy-1-ethylamino)carbonyl-thiophen-2-yl]pentane]",19.9
14,"CCC(CC)(c1ccc(OCC(=O)C(C)(C)C)c(C)c1)c1cc(C)c(C(=O)N(C)CC(=O)O)s1 [Ex. 118, N-methyl-2-[(5-{1-[4-(3,3-Dimethyl-2-oxo-butoxy)-3-methyl-phenyl]-1-ethyl-propyl}-3-methyl-thiophene-2-carbonyl)-methylamino]-acetic acid]",32.2
15,"CCC(CC)(c1ccc(OCC(O)C(C)(C)C)c(C)c1)c1cc(C)c(C(=O)N(C)CC(=O)O)s1 (stereo not drawn) [Ex. 123, N-2-[(5-{1-ethyl-1-[4-(2-hydroxy-3,3-dimethyl-butoxy)-3-methyl-phenyl]-propyl}-3-methyl-thiophene-2-carbonyl)-methylamino]-acetic acid]",475
16,"CCC(CC)(c1ccc(OCC(O)C(C)(C)C)c(C)c1)c1cc(C)c(CN(CC(=O)O)C(C)=O)s1 (stereo not drawn) [Ex. 130, 2-[N-acetyl-(5-{1-ethyl-1-[4-(2-hydroxy-3,3-dimethyl-butoxy)-3-methyl-phenyl]-propyl}-3-methyl-thiophen-2-ylmethyl)-amino]-acetic acid]",49.7

row,Structure (SMILES),EC50 [nM]
1,"CCC(CC)(c1ccc(OCC(=O)C(C)(C)C)c(C)c1)c1cc(C)c(CN(CC(=O)O)C(C)=O)s1 [Ex. 133, 2-[N-Acetyl-(5-{1-[4-(3,3-dimethyl-2-oxo-butoxy)-3-methyl-phenyl]-1-ethyl-propyl}-3-methyl-thiophen-2-yl-methyl)-amino]-acetic acid]",49.2
2,CCC(CC)(c1ccc(OCC(O)C(C)(C)C)c(C)c1)c1cc(C)c(S(=O)(=O)NCC(=O)O)s1 (stereo not drawn) [Ex. 137],24.2
3,CCC(CC)(c1ccc(OCC(=O)C(C)(C)C)c(C)c1)c1cc(C)c(S(=O)(=O)NCC(=O)O)s1 [Ex. 139],31
4,CCOC(=O)CCNS(=O)(=O)c1sc(C(CC)(CC)c2ccc(OCC(O)C(C)(C)C)c(C)c2)cc1C (stereo not drawn) [Ex. 140],72.5
5,CCC(CC)(c1ccc(OCC(=O)C(C)(C)C)c(C)c1)c1cc(C)c(S(=O)(=O)NCCC(=O)O)s1 [Ex. 144],29.2
6,CCC(CC)(c1ccc(OCC(=O)C(C)(C)C)c(C)c1)c1cc(C)c(S(=O)(=O)N[C@H](C)C(=O)O)s1 [Ex. 146],27.7
7,CCC(CC)(c1ccc(OCC(=S)C(C)(C)C)c(C)c1)c1cc(C)c(S(=O)(=O)N[C@H](C)C(=O)O)s1 [Ex. 147],128
8,CCC(CC)(c1ccc(OCC(O)C(C)(C)C)c(C)c1)c1cc(C)c(S(=O)(=O)NC(C)(C)C(=O)OC)s1 (stereo not drawn) [Ex. 148],236
9,CCC(CC)(c1ccc(OCC(O)C(C)(C)C)c(C)c1)c1cc(C)c(S(=O)(=O)Nc2ccccc2C(=O)O)s1 (stereo not drawn) [Ex. 149],98.3
10,CCC(CC)(c1ccc(OCC(O)C(C)(C)C)c(C)c1)c1cc(C)c(S(=O)(=O)N[C@H](C)C(=O)OC)s1 (stereo partly drawn) [Ex. 150],55.2
11,CCC(CC)(c1ccc(OCC(O)C(C)(C)C)c(C)c1)c1cc(C)c(S(=O)(=O)N[C@H](C)C(=O)O)s1 (stereo partly drawn) [Ex. 151],48.2
12,CCC(CC)(c1ccc(OCC(O)C(C)(C)C)c(C)c1)c1ccc(S(=O)(=O)NCC(=O)O)s1 (stereo not drawn) [Ex. 153],187
13,CCc1cc(C(CC)(CC)c2ccc(S(=O)(=O)NCC(=O)OC)s2)ccc1OCC(O)C(C)(C)C (stereo not drawn) [Ex. 154],20.5
14,CCCc1cc(C(CC)(CC)c2ccc(S(=O)(=O)NCC(=O)O)s2)ccc1OCC(O)C(C)(C)C (stereo not drawn) [Ex. 157],7.65
15,CCC(CC)(c1ccc(OCC(=O)C(C)(C)C)c(C)c1)c1cc(C)c(S(=O)(=O)/N=C/N(C)C)s1 [Ex. 161],77
16,"CCC(=O)NS(=O)(=O)c1sc(C(CC)(CC)c2ccc(OCC(=O)C(C)(C)C)c(C)c2)cc1C [Ex. 163, 5-{1-[4-(3,3-dimethyl-2-oxo-butoxy)-3-methyl-phenyl]-1-ethyl-propyl}-3-methyl-thiophene-2-sulfonic acid propionyl-amide]",106
